Read-outs that look alike come from different tables or passages of the source.
Legend:
KV10.1 [1] = target: T1, KV10.1 (Homo sapiens, UniProt O95259); experiment: Whole-cell patch clamp on HEK-293 cells stably expressing KV10.1; assay type: cell-based; conditions: for inhibition at 50 µM: HEK293, compound concentration 50 μM, stimuli to +40 mV, mean ± standard error, read-out: Effect on Kv10.1 (% Inhibition)
T1 construct: expressed in transfected cells
T1 sequence (O95259 1-962 isoform O95259-2): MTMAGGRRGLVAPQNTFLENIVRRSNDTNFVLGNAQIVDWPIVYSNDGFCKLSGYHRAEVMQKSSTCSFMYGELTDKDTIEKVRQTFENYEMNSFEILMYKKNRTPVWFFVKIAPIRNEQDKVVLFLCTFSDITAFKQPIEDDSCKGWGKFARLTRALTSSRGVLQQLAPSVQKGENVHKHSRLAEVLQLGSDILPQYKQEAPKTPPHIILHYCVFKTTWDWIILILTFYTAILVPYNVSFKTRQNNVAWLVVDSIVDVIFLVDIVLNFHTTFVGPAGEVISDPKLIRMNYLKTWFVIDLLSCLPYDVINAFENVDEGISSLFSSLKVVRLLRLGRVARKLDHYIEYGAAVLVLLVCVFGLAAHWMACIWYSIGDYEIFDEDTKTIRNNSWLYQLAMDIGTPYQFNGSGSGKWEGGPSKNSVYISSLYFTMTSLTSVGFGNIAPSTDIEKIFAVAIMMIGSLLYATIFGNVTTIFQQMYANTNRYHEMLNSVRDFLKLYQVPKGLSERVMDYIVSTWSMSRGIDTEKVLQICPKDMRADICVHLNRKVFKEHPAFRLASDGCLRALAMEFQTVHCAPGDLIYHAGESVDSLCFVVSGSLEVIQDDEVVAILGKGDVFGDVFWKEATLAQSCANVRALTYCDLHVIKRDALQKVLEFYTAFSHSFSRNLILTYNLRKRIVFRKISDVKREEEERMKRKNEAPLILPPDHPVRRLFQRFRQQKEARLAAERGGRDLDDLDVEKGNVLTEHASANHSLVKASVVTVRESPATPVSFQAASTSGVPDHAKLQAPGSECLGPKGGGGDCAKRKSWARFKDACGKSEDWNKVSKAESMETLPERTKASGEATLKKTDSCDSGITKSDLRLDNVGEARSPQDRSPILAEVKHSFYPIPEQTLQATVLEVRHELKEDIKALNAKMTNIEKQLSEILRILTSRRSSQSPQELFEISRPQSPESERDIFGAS
Method: (§1) Whole-cell patch clamp experiments were performed on stably transfected HEK-293 cells. The cells were grown on fibronectin-coated glass coverslips in DMEM supplemented with 10% FCS and 300 µg/mL Zeocin. Experiments were performed at room temperature under continuous perfusion. The extracellular solution contained (mM) 160 NaCl, 2.5 KCl, 2 CaCl2, 1 MgCl2, 10 Hepes/NaOH, pH 7.4, 8 glucose. For the experiments determining conductance–voltage relationships, tail currents were made visible by substituting 60 mM NaCl by KCl ([…], 100 NaCl). Pipettes were pulled from #1 glass capillaries (WPI) to resistances of 1–3 MΩ when loaded with the intracellular solution (100 KCl, 45 N-methyl-D-glucamine, 10 1,2-bis(o-aminophenoxy)ethane-N,N,N′,N′-tetraacetic acid (BAPTA), 10 Hepes pH 7.35). Data acquisition was performed using a EPC10 Plus amplifier (HEKA Elektronik) and Patch Master software. Drug application was performed using an 8-channel fast solution exchanger (ALA). All compounds were dissolved in DMSO to a final concentration of 10 mM. 0.5% DMSO in extracellular solution served as control. KV10.1 currents were elicited by 500 ms depolarisations to +40 mV under continuous perfusion with the compound-containing or control solution. hERG current amplitudes were measured as the peak tail current during a 4 s repolarization to −40 mV after a depolarising pulse to +20 mV lasting for 2 s.
The nine selected in silico hits were tested by manual patch-clamp on a HEK293 cell line stably expressing KV10.1 [33] at a compound concentration of 50 μM (Table 1). Compound activity was tested by determining the current amplitude elicited by repetitive stimuli to +40 mV from a holding potential of −80 mV. […] The hit compound ZVS-08 represents a new structural class of KV10.1 inhibitors with diarylamine structure and has a unique structure among the acquired virtual screening hits. […] The most notable change from the purpurealidin analogues is the replacement of the hydrogen bond acceptor group of the amide bond with the oxygen atom of the nitro group of ZVS-08.

hERG = target: T2, hERG (Homo sapiens, UniProt Q12809); experiment: Whole-cell patch clamp on stably transfected HEK-293 cells, hERG tail current; assay type: cell-based; conditions: peak tail current at −40 mV after +20 mV
T2 construct: expressed in transfected cells
T2 sequence (Q12809 whole entry): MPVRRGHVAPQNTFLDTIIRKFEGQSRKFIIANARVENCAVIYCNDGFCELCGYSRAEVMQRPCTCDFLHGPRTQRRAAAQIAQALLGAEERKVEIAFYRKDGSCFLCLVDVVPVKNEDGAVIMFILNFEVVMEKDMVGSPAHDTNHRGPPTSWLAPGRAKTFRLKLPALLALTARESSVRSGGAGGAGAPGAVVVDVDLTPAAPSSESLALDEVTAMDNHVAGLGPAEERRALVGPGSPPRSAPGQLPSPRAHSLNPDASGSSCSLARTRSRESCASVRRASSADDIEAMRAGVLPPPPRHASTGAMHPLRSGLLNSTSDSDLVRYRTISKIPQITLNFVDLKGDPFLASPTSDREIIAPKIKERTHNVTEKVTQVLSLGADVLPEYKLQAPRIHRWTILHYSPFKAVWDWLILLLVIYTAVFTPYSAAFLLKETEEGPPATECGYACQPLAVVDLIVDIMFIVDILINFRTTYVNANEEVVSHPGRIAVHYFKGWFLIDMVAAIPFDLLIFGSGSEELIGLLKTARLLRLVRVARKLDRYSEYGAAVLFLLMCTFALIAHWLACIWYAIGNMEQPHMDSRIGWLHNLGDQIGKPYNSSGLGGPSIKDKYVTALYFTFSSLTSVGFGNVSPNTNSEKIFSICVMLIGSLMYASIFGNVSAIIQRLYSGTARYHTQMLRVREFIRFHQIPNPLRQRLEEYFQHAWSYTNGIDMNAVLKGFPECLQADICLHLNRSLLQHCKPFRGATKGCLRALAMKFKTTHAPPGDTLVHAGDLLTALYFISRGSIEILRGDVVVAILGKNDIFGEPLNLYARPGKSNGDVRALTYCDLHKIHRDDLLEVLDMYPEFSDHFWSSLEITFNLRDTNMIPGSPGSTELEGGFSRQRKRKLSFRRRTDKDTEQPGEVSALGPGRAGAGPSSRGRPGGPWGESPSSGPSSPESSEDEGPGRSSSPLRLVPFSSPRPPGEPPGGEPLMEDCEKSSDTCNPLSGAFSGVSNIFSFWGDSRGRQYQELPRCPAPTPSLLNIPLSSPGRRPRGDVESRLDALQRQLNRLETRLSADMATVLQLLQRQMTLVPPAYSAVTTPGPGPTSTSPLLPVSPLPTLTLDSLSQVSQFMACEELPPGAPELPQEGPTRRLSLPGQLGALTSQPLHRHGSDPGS
Method: as §1

MCF-7 cells = experiment: Cell growth in 2D culture (Incucyte confluence, 72 h), MCF-7; assay type: cell-based; conditions: high KV10.1 and low hERG expression
Method: (§2) Cell lines MCF-7 (DSMZ ACC 115), PANC-1 (DSMZ ACC 783), and hTERT-RPE1 (ATCC CRL 4000) were grown in the media recommended by the cell provider in a humidified atmosphere at 5% CO2 and 37 °C. For cell growth experiments, 10^4 cells/well were seeded in 96-well flat bottom culture plates (Corning) and allowed to grow for 24 h. The compounds were then added in the corresponding growth medium, and the plate was imaged every hour for 72 h (two images per well and eight wells per condition in two independent experiments for compound 8 and five for ZVS-08 and compound 1) in an Incucyte system (Sartorius/Essen biosciences). Culture confluence was determined in the phase contrast images and is expressed as percent confluence per well. The growth was then normalised to the value in the absence of compounds.
KV10.1 inhibitors with a favourable pharmacological profile are promising candidates for cancer therapy. To investigate the activity of the new compounds on cancer cells proliferation, compounds ZVS-08, 1 and 8 were tested on MCF-7, a breast cancer cell line showing high KV10.1 expression and low hERG expression, and on Panc1, a pancreatic cancer cell line with undetectable KV10.1 expression and high level of hERG expression. hTERT-RPE1 cells served as a non-cancer cell line. hTERT-RPE1 cells show transient physiological expression of Kv10.1 that begins during the G2 phase of the cell cycle and extends through mitosis as present in normal cells. Different concentrations of the compounds were added to the culture medium and the growth of the cell was monitored over 72 h (Figure 14).

Panc1 cells = experiment: Cell growth in 2D culture (Incucyte confluence, 72 h), Panc1; assay type: cell-based; conditions: Homo sapiens, PANC-1, no KV10.1 and high hERG expression
Method: as §2
KV10.1 inhibitors with a favourable pharmacological profile are promising candidates for cancer therapy. […] Different concentrations of the compounds were added to the culture medium and the growth of the cell was monitored over 72 h (Figure 14).

Colo357 tumour spheroids = experiment: Apoptosis (caspase 3/7 reporter) in tumour spheroids; assay type: cell-based; conditions: 50 µM, caspase reporter fluorescence over 72 h, 8.9 µM cycloheximide as sensitizer
Method: Spheroids were cultured in round bottom ultra-low attachment 96-well plates (Corning) at a density of 5000 cells/well in 2% Matrigel (Corning) and centrifuged at 1000× g for 10 min. Spheroid formation was monitored continuously in the Incucyte system and treatments were added once spheroids were formed. As apoptosis sensitizer, 8.9 µM cycloheximide was added to controls and treated spheroids. Caspase 3/7 green reagent (Sartorius; 1:1000) was used as recommended by the manufacturer. Caspase 3/7 reagent substrate crosses the cell membrane and its cleavage by activated caspase-3/7 results in the release of a DNA dye and fluorescent staining of nuclear DNA.
To test the ability of the compounds to inhibit tumour progression in a more predictive system, we performed experiments on tumour spheroids of the pancreatic cancer cell line Colo357, which grows efficiently in this culture modality. The cells were seeded in the presence of Matrigel (see methods), allowed to form spheroids, and the compounds (50 µM) were added to the growth medium. The control contained the same amount of the vehicle (0.5% DMSO). Apoptosis was monitored by addition of a fluorescent […] activity reporter at the same time as the compounds. Cleavage of the reporter by caspase results in green florescence, and the intensity of the fluorescence was recorded over 72 h.

KV10.1 [2] = target: T1, KV10.1; experiment: Whole-cell patch clamp on HEK-293 cells stably expressing KV10.1; assay type: cell-based; conditions: for inhibition at 10 µM: HEK293, mean ± standard error (or range); for KV10.1 inhibitory activity: SAR discussion of Table 3 (10 μM)
KV10.1 [3] = target: T1, KV10.1; design: method as in PMID 15365094; conditions: open-channel blocker; cited from earlier work

SMILES | inhibition at 10 µM (KV10.1 [2]) [%] | inhibition at 50 µM (KV10.1 [1]) [%] | further results
CN(C)CCCOc1ccc(Nc2ccc(C(F)(F)F)cc2[N+](=O)[O-])cc1 [Compound 1] | 87.3 ± 4.6 | – | IC50 (KV10.1 [1]; HEK-293, 500 ms depolarisation to +40 mV, read-out: IC50 Kv10.1): 740 nM; IC50 (hERG): 207 nM; IC50 (MCF-7 cells; Homo sapiens, MCF7, 72 h): 5480 nM; IC50 (MCF-7 cells): ~5000 nM; IC50 (Panc1 cells): > 30000 nM; apoptosis induction in tumour spheroids (Colo357 tumour spheroids): required longer time, but reached similar efficacy
O=[N+]([O-])c1ccccc1Nc1ccc(OCC(O)CN2CCOCC2)cc1 (stereo not drawn) [Compound 2] | 23.9 ± 26.8 | – | melting point: 95.6 to 97.5 °C
CN(C)CC(O)COc1ccc(Nc2ccccc2)cc1 (stereo not drawn) [Compound 3] | 22.1 ± 33.5 | – | melting point: 88 to 90.1 °C; KV10.1 inhibitory activity (KV10.1 [2]): almost inactive
CN(C)CCCOc1ccc(Nc2ccccc2[N+](=O)[O-])cc1 [Compound 4] | 36.6 ± 19.9 | – | –
O=[N+]([O-])c1cc(C(F)(F)F)ccc1Nc1ccc(OCC(O)CNc2ccccc2)cc1 (stereo not drawn) [Compound 5] | 2.53 ± 11.7 | – | –
CN(C)CC(O)COc1ccc(Nc2ccc(C(F)(F)F)cc2)cc1 (stereo not drawn) [Compound 6] | 57.5 ± 28.4 | – | melting point: 76.3 to 79.1 °C
CN(C)CC(O)COc1ccc(Nc2ccccc2[N+](=O)[O-])cc1 (stereo not drawn) [Compound 7] | 21 ± 30.3 | – | melting point: 76.1 to 77.3 °C
COC(=O)c1ccccc1Nc1ccc(OCC(O)CN(C)C)cc1 (stereo not drawn) [Compound 9] | 2 ± 7.45 | – | KV10.1 inhibitory activity (KV10.1 [2]): inactive
CN(C)CC(O)COc1ccc(Nc2ccc(C(F)(F)F)cc2N)cc1 (stereo not drawn) [Compound 10] | 57 ± 21.7 | – | –
CN(C)CC(O)COc1ccc(Nc2ccccc2C(=O)O)cc1 (stereo not drawn) [Compound 11] | 37.7 ± 7.13 | – | KV10.1 inhibitory activity (KV10.1 [2]): inactive
CC(=O)NCC(O)COc1ccc(Nc2ccc(C(F)(F)F)cc2[N+](=O)[O-])cc1 (stereo not drawn) [Compound 12] | 16.6 ± 38.4 | – | –
Cc1cccnc1C(=O)NCc1cnc(CCC2CCN(C)CC2)cn1 [ZVS-01] | – | -1.13 ± 4.5 | –
CN1CCN(S(=O)(=O)c2ccc(CNC(=O)c3ccccc3)s2)CC1 [ZVS-02] | – | 5.03 ± 2.87 | –
CN1CCOC(c2nccc(CNC(=O)Cc3cccs3)n2)C1 (stereo not drawn) [ZVS-03] | – | -1.14 ± 3.47 | –
O=C(CCN1CCOCC1)Nc1ccc(S(=O)(=O)Nc2cc(Cl)cc(Cl)c2)cc1 [ZVS-04] | – | -0.86 ± 0.75 | –
CN1CCN(c2cc(CNC(=O)Cc3noc4ccccc34)ccn2)CC1 [ZVS-05] | – | 8.84 ± 4.92 | –
CN1CCN(c2cc(CNC(=O)c3cc(=O)[nH]c4ccccc34)ccn2)CC1 [ZVS-06] | – | -7.5 ± 4.65 | –
COc1ccc(F)cc1C(=O)NCc1cnc(C2CCN(C)C2)[nH]1 (stereo not drawn) [ZVS-07] | – | 4.68 ± 1.63 | –
CN(C)Cc1cncc(C2CCCN2C(=O)c2ccc3c(c2)CCC3)n1 (stereo not drawn) [ZVS-09] | – | 0.15 ± 1.67 | –
COc1ccc(CCN2CCC(Nc3nc4ccccc4n3Cc3ccc(F)cc3)CC2)cc1 [astemizole] | – | – | IC50 (KV10.1 [3]): ~200 nM

Reference: PMC8002023, “3D Pharmacophore-Based Discovery of Novel KV10.1 Inhibitors with Antiproliferative Activity” (Cancers, 2021)
